From PMC5431190, “Investigation of cationicity and structure of pseudin-2 analogues for enhanced bacterial selectivity and anti-inflammatory activity” (Scientific Reports, 2017)
Values after ≈ are worked out from the molar mass of the structure shown. Residues, ends and D or L forms follow the SMILES beside them.

Tests used:
[1] = test system: Acinetobacter baumannii CCARM 12035 (MDRAB 12035); format: cell-based; details: multidrug-resistant strain; 1% peptone media, 16 h at 37 °C
Text: (§1) Four Gram-negative bacteria species (Escherichia coli KCTC 1682, Acinetobacter baumannii KCTC 2508, Pseudomonas aeruginosa KCTC 1637 and Salmonella typhimurium KCTC 1926) and three Gram-positive bacteria species (Staphylococcus aureus KCTC 1621, Bacillus subtilis KCTC 3028 and Staphylococcus epidermidis KCTC 1917) were procured from the Korean Collection for Type Cultures (KCTC). Multi-drug-resistant Gram-negative bacteria (Salmonella typhimurium CCARM 8003 and 8007, Escherichia coli CCARM 1229 and 1238, Pseudomonas aeruginosa CCARM 2002 and 2095 and Acinetobacter baumannii CCARM 12035 and 12036) were obtained from the Culture Collection of Antibiotic-Resistant Microbes (CCARM). To determine MICs, bacteria were cultured in Luria-Bertani (LB) medium for overnight at 37 °C. An aliquot of the culture was incubated in 1% peptone media at 37 °C until mid-log phase. 100 μl of serial 2-fold diluted peptides were treated in 96 well plates and added to 100 μl of 2 × 10^6 CFU/ml bacterial suspensions in 1% peptone media for 16 h at 37 °C.

[2] = test system: Acinetobacter baumannii CCARM 12036 (MDRAB 12036); format: cell-based; details: multidrug-resistant strain; 1% peptone media, 16 h at 37 °C
Text: as §1

[3] = test system: Acinetobacter baumannii KCTC 2508; format: cell-based; details: standard strain KCTC 2508; 1% peptone media, 16 h at 37 °C; three independent experiments in triplicate, SD 14.0%
Text: as §1

[4] = test system: Bacillus subtilis KCTC 3028; format: cell-based; details: standard strain KCTC 3028; 1% peptone media, 16 h at 37 °C; three independent experiments in triplicate, SD 14.0%
Text: as §1

[5] = test system: Escherichia coli CCARM 1229 (MDREC 1229); format: cell-based; details: multidrug-resistant strain; 1% peptone media, 16 h at 37 °C
Text: as §1

[6] = test system: Escherichia coli CCARM 1238 (MDREC 1238); format: cell-based; details: multidrug-resistant strain; 1% peptone media, 16 h at 37 °C
Text: as §1

[7] = test system: Escherichia coli KCTC 1682; format: cell-based; details: standard strain KCTC 1682; 2-fold dilutions, 1% peptone media, 2 × 10^6 CFU/ml suspension, 16 h at 37 °C; three independent experiments in triplicate, SD 14.0%
Text: as §1

[8] = test system: Gram-negative bacteria (E. coli, A. baumannii, P. aeruginosa, S. typhimurium); format: cell-based; details: average over the four Gram-negative standard strains
Text: as §1

[9] = test system: Gram-positive bacteria (S. aureus, B. subtilis, S. epidermidis); format: cell-based; details: average over the three Gram-positive standard strains
Text: as §1

[10] = test system: Pseudomonas aeruginosa CCARM 2002 (MDRPA 2002); format: cell-based; details: multidrug-resistant strain; 1% peptone media, 16 h at 37 °C
Text: as §1

[11] = test system: Pseudomonas aeruginosa CCARM 2095 (MDRPA 2095); format: cell-based; details: multidrug-resistant strain; 1% peptone media, 16 h at 37 °C
Text: as §1

[12] = test system: Pseudomonas aeruginosa KCTC 1637; format: cell-based; details: standard strain KCTC 1637; 1% peptone media, 16 h at 37 °C; three independent experiments in triplicate, SD 14.0%
Text: as §1

[13] = test system: Salmonella typhimurium CCARM 8003 (MDRST 8003); format: cell-based; details: multidrug-resistant strain; 1% peptone media, 16 h at 37 °C
Text: as §1

[14] = test system: Salmonella typhimurium CCARM 8007 (MDRST 8007); format: cell-based; details: multidrug-resistant strain; 1% peptone media, 16 h at 37 °C
Text: as §1

[15] = test system: Salmonella typhimurium KCTC 1926; format: cell-based; details: standard strain KCTC 1926; 1% peptone media, 16 h at 37 °C; three independent experiments in triplicate, SD 14.0%
Text: as §1

[16] = test system: Staphylococcus aureus KCTC 1621; format: cell-based; details: standard strain KCTC 1621; 1% peptone media, 16 h at 37 °C; three independent experiments in triplicate, SD 14.0%
Text: as §1

[17] = test system: Staphylococcus epidermidis KCTC 1917; format: cell-based; details: standard strain KCTC 1917; 1% peptone media, 16 h at 37 °C; three independent experiments in triplicate, SD 14.0%
Text: as §1

[18] = test system: S. aureus 3089(R) (MRSA 3089); format: cell-based, Staphylococcus aureus; details: multidrug-resistant strain; 1% peptone media, 16 h at 37 °C
[19] = test system: S. aureus 3108(R) (MRSA 3108); format: cell-based, Staphylococcus aureus; details: multidrug-resistant strain; 1% peptone media, 16 h at 37 °C
[20] = test system: S. aureus 3126(R) (MRSA 3126); format: cell-based, Staphylococcus aureus; details: multidrug-resistant strain; 1% peptone media, 16 h at 37 °C
[21] = test system: human red blood cells (hRBCs); experiment: Haemolytic activity; format: cell-based; details: 1 h at 37 °C
Procedure: Peptide-induced lysis of human red blood cells (hRBCs) was determined as follows. Fresh hRBCs were washed 2–3 times with phosphate-buffered saline (PBS) by centrifugation for 5 min at 2500 rpm at 4 °C. Peptides in PBS were incubated with 4% (v/v) hRBCs for 1 h at 37 °C. Samples were then centrifuged for 5 min at 1000 × g. The absorbance of the supernatant at 405 nm was used as a measure of haemolysis. As a positive control, 100% haemolysis was obtained by treating hRBCs with 0.1% Triton X-100.

SMILES	MIC, MDRAB 12035 [1]	MIC, MDRAB 12036 [2]	MIC, A. baumannii [3]	MIC, B. subtilis [4]	MIC, MDREC 1229 [5]	MIC, MDREC 1238 [6]	MIC, E. coli [7]	Average MIC, Gram-negative [8]	Average MIC, Gram-positive [9]	MIC, MDRPA 2002 [10]	MIC, MDRPA 2095 [11]	MIC, P. aeruginosa [12]	MIC, MDRST 8003 [13]	MIC, MDRST 8007 [14]	MIC, S. typhimurium [15]	MIC, S. aureus [16]	MIC, S. epidermidis [17]	MIC, MRSA 3089 [18]	MIC, MRSA 3108 [19]	MIC, MRSA 3126 [20]	other results
CC[C@H](C)[C@H](NC(=O)CN)C(=O)NCC(=O)N[C@@H](C)C(=O)N[C@H](C(=O)N[C@@H](CC(C)C)C(=O)N[C@@H](CCCCN)C(=O)N[C@H](C(=O)N[C@@H](CC(C)C)C(=O)N[C@H](C(=O)N[C@H](C(=O)NCC(=O)N[C@@H](CC(C)C)C(=O)N1CCC[C@H]1C(=O)N[C@@H](C)C(=O)N[C@@H](CC(C)C)C(=O)N[C@H](C(=O)N[C@@H](CO)C(=O)N[C@@H](Cc1c[nH]c2ccccc12)C(=O)N[C@H](C(=O)N[C@@H](CCCCN)C(=O)N[C@@H](CCCNC(=N)N)C(=O)N[C@@H](CCCCN)C(=O)N[C@@H](CCCNC(=N)N)C(=O)N[C@@H](CCC(N)=O)C(=O)N[C@@H](CCC(N)=O)C(N)=O)[C@@H](C)CC)[C@@H](C)CC)[C@@H](C)O)[C@@H](C)O)C(C)C)C(C)C [Melittin, reference compound]	4 µM (≈ 11.4 µg/mL)	4 µM (≈ 11.4 µg/mL)	4 µM (≈ 11.4 µg/mL)	4 µM (≈ 11.4 µg/mL)	4 µM (≈ 11.4 µg/mL)	4 µM (≈ 11.4 µg/mL)	4 µM (≈ 11.4 µg/mL)	5 µM	3.33 µM	2 µM (≈ 5.69 µg/mL)	2 µM (≈ 5.69 µg/mL)	4 µM (≈ 11.4 µg/mL)	8 µM (≈ 22.8 µg/mL)	8 µM (≈ 22.8 µg/mL)	8 µM (≈ 22.8 µg/mL)	4 µM (≈ 11.4 µg/mL)	2 µM (≈ 5.69 µg/mL)	2 µM (≈ 5.69 µg/mL)	2 µM (≈ 5.69 µg/mL)	2 µM (≈ 5.69 µg/mL)	
CC[C@H](C)[C@H](NC(=O)[C@H](C)NC(=O)[C@H](CCCCN)NC(=O)[C@H](Cc1c[nH]cn1)NC(=O)[C@@H](NC(=O)[C@@H]1CCCN1C(=O)[C@H](CCC(N)=O)NC(=O)[C@H](Cc1ccccc1)NC(=O)[C@@H](NC(=O)[C@H](CCCCN)NC(=O)[C@H](CCCCN)NC(=O)[C@H](CC(C)C)NC(=O)[C@H](C)NC(=O)[C@H](CC(N)=O)NC(=O)[C@H](CC(C)C)NC(=O)CN)C(C)C)[C@@H](C)CC)C(=O)N[C@@H](CCCCN)C(=O)N[C@@H](CCCCN)C(=O)N[C@H](C(=O)N[C@@H](CC(N)=O)C(=O)N[C@@H](CC(N)=O)C(=O)N[C@@H](Cc1c[nH]cn1)C(=O)N[C@H](C(=O)N[C@@H](CCC(N)=O)C(=O)O)C(C)C)[C@@H](C)CC [Ps-K14-K18-P] (H-GLNALKKVFQPIHKAIKKINNHVQ-OH)	16 µM (≈ 43.8 µg/mL)	8 µM (≈ 21.9 µg/mL)	8 µM (≈ 21.9 µg/mL)	32 µM (≈ 87.7 µg/mL)	8 µM (≈ 21.9 µg/mL)	8 µM (≈ 21.9 µg/mL)	4 µM (≈ 11 µg/mL)	7 µM	42.67 µM	16 µM (≈ 43.8 µg/mL)	16 µM (≈ 43.8 µg/mL)	8 µM (≈ 21.9 µg/mL)	16 µM (≈ 43.8 µg/mL)	16 µM (≈ 43.8 µg/mL)	8 µM (≈ 21.9 µg/mL)	32 µM (≈ 87.7 µg/mL)	64 µM (≈ 175 µg/mL)	32 µM (≈ 87.7 µg/mL)	32 µM (≈ 87.7 µg/mL)	64 µM (≈ 175 µg/mL)	haemolysis at 400 μM ([21]; 400 μM peptide, 4% hRBCs, PBS, 100% = 0.1% Triton X-100): 0.3%; MHC (minimal peptide concentration that produces haemolysis) ([21]; 4% (v/v) hRBCs in PBS, absorbance 405 nm, printed in both Gram-negative and Gram-positive sections): 400 µM
